Experimental data as given in patent publication US8143263B2, “Therapeutic agents” (Astrazeneca AB, priority 2008, dated 2012).

target: T1, recombinant human pancreatic GLK (Homo sapiens, UniProt P35557); test: biochemical
T1 sequence (P35557 1-465): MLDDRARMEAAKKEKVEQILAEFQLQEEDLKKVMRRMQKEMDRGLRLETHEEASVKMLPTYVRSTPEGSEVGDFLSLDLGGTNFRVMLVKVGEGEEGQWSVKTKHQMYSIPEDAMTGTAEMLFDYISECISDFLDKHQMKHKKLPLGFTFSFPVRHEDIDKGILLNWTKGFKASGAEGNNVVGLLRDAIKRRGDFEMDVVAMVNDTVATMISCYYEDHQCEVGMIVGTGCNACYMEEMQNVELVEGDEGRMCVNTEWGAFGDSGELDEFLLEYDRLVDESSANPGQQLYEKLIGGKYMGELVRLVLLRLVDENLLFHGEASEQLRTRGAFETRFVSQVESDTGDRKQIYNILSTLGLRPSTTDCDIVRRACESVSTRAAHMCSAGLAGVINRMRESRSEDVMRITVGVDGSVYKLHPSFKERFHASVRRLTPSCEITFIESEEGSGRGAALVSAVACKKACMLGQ

Compared with `Cc1ccc(NC(=O)[C@H](CCCO)Oc2ncnc3c2cnn3-c2ncccc2Cl)nc1` [Example 131, (2S)-2-[1-(3-chloropyridin-2-yl)pyrazolo[4,5-e]pyrimidin-4-yl]oxy-5-hydroxy-N-(5-methylpyridin-2-yl)pentanamide], `N#Cc1ccc(NC(=O)[C@H](CCCO)Oc2ncnc3c2cnn3-c2ncccc2Cl)nc1` [Example 213, (2S)-2-(1-(3-chloropyridin-2-yl)-1H-pyrazolo[3,4-d]pyrimidin-4-yloxy)-N-(5-cyanopyridin-2-yl)-5-hydroxypentanamide] is 2.7-fold higher in EC50: 410 nM for the first, 1100 nM for the second.

First: Cc1nnc(NC(=O)C(COC(C)C)Oc2ncnc3c2cnn3-c2ccccc2Cl)o1 (centres unmarked) [2-[1-(2-chlorophenyl)pyrazolo[4,5-e]pyrimidin-4-yl]oxy-3-isopropoxy-N-(5-methyl-1,3,4-oxadiazol-2-yl)propanamide]
Second: Cc1cc(NC(=O)C(COC(C)C)Oc2ncnc3c2cnn3-c2ccccc2Cl)no1 (centres unmarked) [Example 110, 2-[1-(2-chlorophenyl)pyrazolo[4,5-e]pyrimidin-4-yl]oxy-3-isopropoxy-N-(5-methylisoxazol-3-yl)propanamide]
The EC50 of the first is higher: > 100000 nM for the first, 1000 nM for the second. The second is the more potent here.

Compared with `CCCCCCC(Sc1ncnc2c1cnn2-c1ccccc1Cl)C(=O)Nc1ccon1` (centres unmarked) [Example 64, 2-{[1-(2-chlorophenyl)-1H-pyrazolo[3,4-d]pyrimidin-4-yl]thio}-N-isoxazol-3-yloctanamide], `CCCCCCC(Sc1ncnc2c1cnn2-c1ccccc1Cl)C(=O)Nc1ccc(C)cn1` (centres unmarked) [2-[1-(2-chlorophenyl)pyrazolo[4,5-e]pyrimidin-4-yl]sulfanyl-N-(5-methyl-2-pyridyl)octanamide] is higher in EC50: 10000 nM for the first, > 100000 nM for the second.

First: COc1ccccc1-n1ncc2c(O[C@H](C)C(=O)Nc3ccc(C)cn3)ncnc21 [(R)-2-[1-(2-methoxyphenyl)pyrazolo[4,5-e]pyrimidin-4-yl]oxy-N-(5-methyl-2-pyridyl)propanamide]
Second: COCC[C@H](Oc1ncnc2c1cnn2-c1ccccc1OC)C(=O)Nc1ccc(C)cn1 [Example 24, (S)-4-methoxy-2-{[1-(2-methoxyphenyl)-1H-pyrazolo[3,4-d]pyrimidin-4-yl]oxy}-N-(5-methylpyridin-2-yl)butanamide]
The EC50 of the first is higher: > 100000 nM for the first, 120 nM for the second.

`CCOC[C@H](Oc1ncnc2c1cnn2-c1ncccc1C(F)(F)F)C(=O)Nc1ccc(Cl)cn1` [Example 134, (2S)—N-(5-chloropyridin-2-yl)-3-ethoxy-2-[1-[3-(trifluoromethyl)pyridin-2-yl]pyrazolo[4,5-e]pyrimidin-4-yl]oxypropanamide] and `Cc1ccc(NC(=O)[C@H](COC(C)C)Oc2ncnc3c2cnn3-c2ncccc2C(F)(F)F)nc1` [Example 126, (2S)-3-Isopropoxy-N-(5-methylpyridin-2-yl)-2-(1-(3-(trifluoromethyl)pyridin-2-yl)-1H-pyrazolo[3,4-d]pyrimidin-4-yloxy)propanamide] are within 1.5-fold of each other in EC50: 440 nM for the first, 570 nM for the second.

First: Cc1nsc(NC(=O)[C@H](COC(C)C)Oc2ncnc3c2cnn3-c2ncccc2Cl)n1 [Example 93, (2S)-2-(1-(3-chloropyridin-2-yl)-1H-pyrazolo[3,4-d]pyrimidin-4-yloxy)-3-isopropoxy-N-(3-methyl-1,2,4-thiadiazol-5-yl)propanamide]
Second: COC[C@H](Oc1ncnc2c1cnn2-c1ncccc1Cl)C(=O)Nc1cnc(C)cn1 [Example 90, (2S)-2-(1-(3-chloropyridin-2-yl)-1H-pyrazolo[3,4-d]pyrimidin-4-yloxy)-3-methoxy-N-(5-methylpyrazin-2-yl)propanamide]
The EC50 of the first is 1.6-fold lower: 3300 nM for the first, 5400 nM for the second. The first is the more potent here.

Compared with `COc1ccccc1-n1ncc2c(O[C@H](CCS(C)(=O)=O)C(=O)Nc3ccc(C)cn3)ncnc21` [Example 11, (R)-2-{[1-(2-methoxyphenyl)-1H-pyrazolo[3,4-d]pyrimidin-4-yl]oxy}-N-(5-methylpyridin-2-yl)-4-(methylsulfonyl)butanamide], `Cc1ccc(NC(=O)[C@H](CCO)Oc2ncnc3c2cnn3-c2ccccc2Cl)nc1` [Example 145, (2S)-2-[1-(2-chlorophenyl)pyrazolo[4,5-e]pyrimidin-4-yl]oxy-4-hydroxy-N-(5-methyl-2-pyridyl)butanamide] is lower in EC50: ≥ 100000 nM for the first, 230 nM for the second.

Going from `COCC[C@H](Oc1ncnc2c1cnn2-c1ccc(F)cc1F)C(=O)Nc1ccc(C)cn1` [Example 27, (S)-2-{[1-(2,4-difluorophenyl)-1H-pyrazolo[3,4-d]pyrimidin-4-yl]oxy}-4-methoxy-N-(5-methylpyridin-2-yl)butanamide] to `COCCC(Oc1ncnc2c1cnn2-c1cccc(C)c1)C(=O)Nc1ccc(C)cn1` (centres unmarked) [Example 31, 4-Methoxy-2-{[1-(3-methylphenyl)-1H-pyrazolo[3,4-d]pyrimidin-4-yl]oxy}-N-(5-methylpyridin-2-yl)butanamide], the EC50 falls from 1000 nM to 350 nM (2.9-fold).

Compared with `C[C@@H](CO)OC[C@H](Oc1ncnc2c1cnn2-c1ncccc1Cl)C(=O)Nc1ccc(Cl)cn1` [Example 193, (2S)—N-(5-chloropyridin-2-yl)-2-(1-(3-chloropyridin-2-yl)-1H-pyrazolo[3,4-d]pyrimidin-4-yloxy)-3-((S)-1-hydroxypropan-2-yloxy)propanamide], `CC(C)OC[C@H](Oc1ncnc2c1cnn2-c1ccccc1Cl)C(=O)Nc1ccc(Cl)cn1` [Example 115a, (2S)-2-[1-(2-chlorophenyl)pyrazolo[4,5-e]pyrimidin-4-yl]oxy-N-(5-chloro-2-pyridyl)-3-isopropoxy-propanamide] is 34-fold lower in EC50: 3300 nM for the first, 98 nM for the second. The second is the more potent here.

First: Cc1cnc(NC(=O)[C@H](COC2CCC2)Oc2ncnc3c2cnn3-c2ccncc2C)cn1 [Example 136, (2S)-3-cyclobutyloxy-N-(5-methylpyrazin-2-yl)-2-[1-(3-methylpyridin-4-yl)pyrazolo[4,5-e]pyrimidin-4-yl]oxypropanamide]
Second: CCOC[C@H](Oc1ncnc2c1cnn2-c1ncccc1Cl)C(=O)Nc1cnc(C)cn1 [Example 104, (2S)-2-[1-(3-Chloropyridin-2-yl)pyrazolo[4,5-e]pyrimidin-4-yl]oxy-3-ethoxy-N-(5-methylpyrazin-2-yl)propanamide]
The EC50 of the first is 1.8-fold higher: 2100 nM for the first, 1200 nM for the second.

Going from `COCCOCCC(Sc1ncnc2c1cnn2C(C)C)C(=O)Nc1ccc(C)cn1` (centres unmarked) [Example 58, 2-[(1-Isopropyl-1H-pyrazolo[3,4-d]pyrimidin-4-yl)thio]-4-(2-methoxyethoxy)-N-(5-methylpyridin-2-yl)butanamide] to `COCC[C@H](Oc1ncnc2c1cnn2-c1ncccc1Cl)C(=O)Nc1ccc(C)cn1` [Example 102, (2S)-2-(1-(3-Chloropyridin-2-yl)-1H-pyrazolo[3,4-d]pyrimidin-4-yloxy)-4-methoxy-N-(5-methylpyridin-2-yl)butanamide], the EC50 falls from 1950 nM to 130 nM (15-fold).

Going from `O=C(Nc1ccc(F)cn1)[C@H](COCCO)Oc1ncnc2c1cnn2-c1c(Cl)cccc1Cl` [Example 218, (2S)-2-[1-(2,6-dichlorophenyl)pyrazolo[4,5-e]pyrimidin-4-yl]oxy-N-(5-fluoro-2-pyridyl)-3-(2-hydroxyethoxy)propanamide] to `N#Cc1ccc(NC(=O)[C@H](COCCO)Oc2ncnc3c2cnn3-c2c(Cl)cccc2Cl)nc1` [Example 235, (2S)—N-(5-cyano-2-pyridyl)-2-[1-(2,6-dichlorophenyl)pyrazolo[3,4-d]pyrimidin-4-yl]oxy-3-(2-hydroxyethoxy)propanamide], the EC50 rises from 215 nM to 400 nM (1.9-fold).

Going from `CCCCC(Oc1ncnc2c1cnn2-c1ccccc1Cl)C(=O)Nc1cnc(C)cn1` (centres unmarked) [Example 40, 2-{[1-(2-chlorophenyl)-1H-pyrazolo[3,4-d]pyrimidin-4-yl]oxy}-N-(5-methylpyrazin-2-yl)hexanamide] to `CCCCC(Oc1ncnc2c1cnn2-c1ccccc1Cl)C(=O)Nc1ccc(C)cn1` (centres unmarked) [Example 38, 2-{[1-(2-chlorophenyl)-1H-pyrazolo[3,4-d]pyrimidin-4-yl]oxy}-N-(5-methylpyridin-2-yl)hexanamide], the EC50 falls from 140 nM to 20 nM (7-fold).

First: CC(C)OCC(Oc1ncnc2c1cnn2-c1ccccc1Cl)C(=O)Nc1ccon1 (centres unmarked) [Example 119, 2-[1-(2-chlorophenyl)pyrazolo[4,5-e]pyrimidin-4-yl]oxy-3-isopropoxy-N-isoxazol-3-yl-propanamide]
Second: CC(C)OCC(Oc1ncnc2c1cnn2-c1ccccc1Cl)C(=O)Nc1nncs1 (centres unmarked) [Example 117, 2-[1-(2-chlorophenyl)pyrazolo[4,5-e]pyrimidin-4-yl]oxy-3-isopropoxy-N-(1,3,4-thiadiazol-2-yl)propanamide]
The EC50 of the first is 5.7-fold lower: 1200 nM for the first, 6800 nM for the second. The first is the more potent here.

`N#Cc1ccc(NC(=O)[C@H](CCO)Oc2ncnc3c2cnn3-c2ncccc2Cl)nc1` [Example 143e, (2S)-2-[1-(3-chloro-2-pyridyl)pyrazolo[4,5-e]pyrimidin-4-yl]oxy-N-(5-cyano-2-pyridyl)-4-hydroxy-butanamide] and `Cc1ccc(NC(=O)[C@H](COCCO)Oc2ncnc3c2cnn3-c2c(Cl)cccc2C#N)nc1` [Example 176, (2S)-2-(1-(2-chloro-6-cyanophenyl)-1H-pyrazolo[3,4-d]pyrimidin-4-yloxy)-3-(2-hydroxyethoxy)-N-(5-methylpyridin-2-yl)propanamide] are within 1.5-fold of each other in EC50: 530 nM for the first, 380 nM for the second.

Going from `Cc1ccc(NC(=O)C(CCC(=O)O)Oc2ncnc3c2cnn3-c2ccccc2Cl)nc1` (centres unmarked) [Example 49, 4-{[1-(2-chlorophenyl)-1H-pyrazolo[3,4-d]pyrimidin-4-yl]oxy}-5-[(5-methylpyridin-2-yl)amino]-5-oxopentanoic acid] to `Cc1ccc(NC(=O)[C@H](COC(C)C)Oc2ncnc3c2cnn3-c2ccccc2C(F)(F)F)nc1` [Example 160, (2S)-3-isopropoxy-N-(5-methylpyridin-2-yl)-2-(1-(2-(trifluoromethyl)phenyl)-1H-pyrazolo[3,4-d]pyrimidin-4-yloxy)propanamide], the EC50 falls from 34000 nM to 280 nM (120-fold). The second is the more potent here.
